Experimental findings from patent publication US20130065922A1, “NOVEL AMIDES AS FUNGICIDES” (priority 2010, published 2013) are described below.

Molecules are shown by their SMILES. Where two headings read alike, the source gives them in different places. Bounds are passed on as bounds.

One data set concerns Phytophthora infestans. Nature of the data set: whole plant or invertebrate. Type of data set: in vivo. As to conditions: in Solanum lycopersicum, foliar, read-out: inhibit fungal infestation.
The test system of data set [1] is Blumeria graminis f. Sp. tritici (Erysiphe graminis f. Sp. tritici). Nature of the data set: Blumeria graminis f. Sp. tritici (Erysiphe graminis f. Sp. tritici)/Wheat/Leaf Disc Preventative (Powdery Mildew on Wheat). Type of data set: in vivo. As to conditions: foliar, read-out: inhibit fungal infestation.
The subject of another data set is Pythium ultimum. In words: Pythium ultimum/Liquid Culture (Seedling Damping Off). As to conditions: Globisporangium ultimum, read-out: inhibit fungal infestation. Type of data set: cell-based.
A further data set has as its system Plasmopara viticola. Nature of the data set: whole plant or invertebrate. Type of data set: in vivo. As to conditions: foliar, read-out: inhibit fungal infestation.
The mark [2] stands for this setting: 200 ppm, wheat leaf segments cv. Kanzler, preventative, 6-8 days after application, untreated control infected to over 80%.
Setting [3] is: 200 ppm, liquid culture (PDB), 24° C., growth inhibition photometrically 2-3 days after application.

With `CO/N=C/C(C)(C)NC(=O)C(OC)Oc1ccc2ncc(OC)cc2c1` (stereo not drawn) [Compound 8, 2-Methoxy-N-(2-methoxyimino-1,1-dimethyl-ethyl)-2-(3-methoxy-quinolin-6-yloxy)-acetamide], the melting point fell in the range of 100 to 106 °C. Also, the inhibition at 200 ppm in the data set with Phytophthora infestans was no less than 80%. For the same molecule, the inhibition at 200 ppm in data set [1] (setting [2]) is no less than 80%. Further, the inhibition at 200 ppm with Pythium ultimum (setting [3]) was no less than 80%.
Regarding `COC(Oc1ccc2ncc(SC)cc2c1)C(=O)NC(C)(C)C` (stereo not drawn) [Compound 60, N-tert-Butyl-2-methoxy-2-(3-methylsulfanyl-quinolin-6-yloxy)-acetamide], the melting point was 119 to 121 °C. Besides, the inhibition at 200 ppm in data set [1] (setting [2]) was no less than 80%.
Turning to `CSc1cnc2ccc(OC(SC)C(=O)NC(C)(C)CCF)cc2c1` (stereo not drawn) [Compound 67, N-(3-Fluoro-1,1-dimethyl-propyl)-2-methylsulfanyl-2-(3-methylsulfanyl-quinolin-6-yloxy)-acetamide], the inhibition at 200 ppm (in the data set on Plasmopara viticola; in data set [1] (setting [2])) was no less than 80% each time.
Consider `CO/N=C/C(C)(C)NC(=O)C(OC)Oc1cc(C)c2ncc(SC)cc2c1` (stereo not drawn) [Compound 43, 2-Methoxy-N-(2-methoxyimino-1,1-dimethyl-ethyl)-2-(8-methyl-3-methylsulfanyl-quinolin-6-yloxy)-acetamide], for which the melting point lay within 109 to 111 °C. Further, the inhibition at 200 ppm with Plasmopara viticola was no less than 80%.
In turn, `CCC(Oc1cc(Cl)c2ncc(SC)cc2c1)C(=O)NC(C)(C)C` (stereo not drawn) gave a melting point of 134 to 136 °C.
As to `COCC#CC(C)(C)NC(=O)C(OC)Oc1ccc2ncc(SC)cc2c1` (stereo not drawn) [Compound 58, 2-Methoxy-N-(4-methoxy-1,1-dimethyl-but-2-ynyl)-2-(3-methylsulfanyl-quinolin-6-yloxy)-acetamide], the melting point lay in the range of 74 to 76 °C. In addition, in data set [1], the inhibition at 200 ppm is no less than 80%.
`CC#CC(C)(C)NC(=O)C(OC)Oc1cc(C)c2ncc(SC)cc2c1` (stereo not drawn) [Compound 46, N-(1,1-Dimethyl-but-2-ynyl)-2-methoxy-2-(8-methyl-3-methylsulfanyl-quinolin-6-yloxy)-acetamide] yielded a melting point of 102 to 104 °C. Besides, the inhibition at 200 ppm with Plasmopara viticola is no less than 80%.
`CC#CC(C)(C)NC(=O)C(OC)Oc1ccc2ncc(SC)cc2c1` (stereo not drawn) [Compound 57, N-(1,1-Dimethyl-but-2-ynyl)-2-methoxy-2-(3-methylsulfanyl-quinolin-6-yloxy)-acetamide]: the melting point is 63 to 65 °C. Besides, in data set [1], the inhibition at 200 ppm is no less than 80%.
`CCC(Oc1cc(C)c2ncc(SC)cc2c1)C(=O)NC1CCC1` (stereo not drawn) came in with a melting point of 136 to 138 °C.
As to `CCC(Oc1ccc2ncc(OC)cc2c1)C(=O)NC(C)(C)/C=N/OC` (stereo not drawn) [Compound 6, N-(2-Methoxyimino-1,1-dimethyl-ethyl)-2-(3-methoxy-quinolin-6-yloxy)-butyramide], the melting point lay in the range of 87 to 89 °C. For the same molecule, in data set [1] (setting [2]), the inhibition at 200 ppm was no less than 80%. Moreover, the inhibition at 200 ppm with Pythium ultimum (setting [3]) was no less than 80%.
In turn, `CCC(Oc1cc(Cl)c2ncc(SC)cc2c1)C(=O)NC(C)(C)/C=N/OC` (stereo not drawn) [Compound 39, 2-(8-Chloro-3-methylsulfanyl-quinolin-6-yloxy)-N-(2-methoxyimino-1,1-dimethyl-ethyl)-butyramide] showed a melting point of 119 to 121 °C. The inhibition at 200 ppm with Plasmopara viticola was no less than 80%.
Turning to `C#CC(C)(C)NC(=O)C(CC)Oc1cc(Cl)c2ncc(SC)cc2c1` (stereo not drawn), the melting point lay in the range of 140 to 142 °C.
As for `CO/N=C/C(C)(C)NC(=O)C(OC)Oc1ccc2ncc(SC)cc2c1` (stereo not drawn) [Compound 56, 2-Methoxy-N-(2-methoxyimino-1,1-dimethyl-ethyl)-2-(3-methylsulfanyl-quinolin-6-yloxy)-acetamide], the melting point lay in the range of 98 to 100 °C. The inhibition at 200 ppm in the data set with Phytophthora infestans is no less than 80%. For the same molecule, the inhibition at 200 ppm with Pythium ultimum (setting [3]) is no less than 80%.
`CCC(Oc1ccc2ncc(OC)cc2c1)C(=O)NC(C)(C)C` (stereo not drawn) [Compound 12, N-tert-Butyl-2-(3-methoxy-quinolin-6-yloxy)-butyramide] returned a melting point of 131 to 133 °C. Besides, the inhibition at 200 ppm in the data set with Phytophthora infestans was no less than 80%. In addition, in the data set with Pythium ultimum (setting [3]), the inhibition at 200 ppm was no less than 80%.
`CCC(Oc1cc(Cl)c2ncc(SC)cc2c1)C(=O)NC(C)C` (stereo not drawn) came in with a melting point of 143 to 145 °C.
Molecule `C#CC(C)(C)NC(=O)C(OC)Oc1cc(Cl)c2ncc(SC)cc2c1` (stereo not drawn) displayed a melting point of 116 to 118 °C.
Still for that read-out and setting: the same measure for `C#CC(C)(C)NC(=O)C(OC)Oc1ccc2ncc(SC)cc2c1` (stereo not drawn): 123 to 125 °C.
The molecule `C#CC(C)(C)NC(=O)C(OC)Oc1ccc2ncc(OC)cc2c1` (stereo not drawn) [Compound 9, N-(1,1-Dimethyl-prop-2-ynyl)-2-methoxy-2-(3-methoxy-quinolin-6-yloxy)-acetamide] had a melting point of 124 to 127 °C. In data set [1] (setting [2]), the inhibition at 200 ppm is no less than 80%.
On to `CCOCC(C)(C)NC(=O)C(Oc1ccc2ncc(SC)cc2c1)SC` (stereo not drawn) [Compound 66, N-(2-Ethoxy-1,1-dimethyl-ethyl)-2-methylsulfanyl-2-(3-methylsulfanyl-quinolin-6-yloxy)-acetamide], for which the inhibition at 200 ppm in data set [1] (setting [2]) is no less than 80%.
`COC(Oc1ccc2ncc(SC)cc2c1)C(=O)NC1CCC1` (stereo not drawn) [Compound 61, N-Cyclobutyl-2-methoxy-2-(3-methylsulfanyl-quinolin-6-yloxy)-acetamide] registered a melting point of 80 to 82 °C. Further, the inhibition at 200 ppm in data set [1] (setting [2]) was no less than 80%.
`CCC(Oc1cc(C)c2ncc(SC)cc2c1)C(=O)NC(C)C` (stereo not drawn) had a melting point of 132 to 134 °C.
Molecule `COC(Oc1cc(C)c2ncc(SC)cc2c1)C(=O)NC1CCC1` (stereo not drawn) yielded a melting point of 132 to 134 °C.
As for `CO/N=C/C(C)(C)NC(=O)C(Oc1cc(Cl)c2ncc(SC)cc2c1)SC` (stereo not drawn) [Compound 31, 2-(8-Chloro-3-methylsulfanyl-quinolin-6-yloxy)-N-(2-methoxyimino-1,1-dimethyl-ethyl)-2-methylsulfanyl-acetamide], the melting point was in the range of 168 to 170 °C. Besides, the inhibition at 200 ppm with Plasmopara viticola is no less than 80%. The inhibition at 200 ppm in the data set on Pythium ultimum (setting [3]) is no less than 80%.
`COC(Oc1cc(Cl)c2ncc(SC)cc2c1)C(=O)NC1(C)CCC1` (stereo not drawn) came in with a melting point of 113 to 115 °C.
The same measure, in the same setting: the same measure for `COC(Oc1cc(C)c2ncc(SC)cc2c1)C(=O)NC(C)(C)C` (stereo not drawn): 146 to 148 °C.
`CO/N=C/C(C)(C)NC(=O)C(OC)Oc1cc(Cl)c2ncc(SC)cc2c1` (stereo not drawn) [Compound 47, 2-(8-Chloro-3-methylsulfanyl-quinolin-6-yloxy)-2-methoxy-N-(2-methoxyimino-1,1-dimethyl-ethyl)-acetamide] had a melting point of 121 to 123 °C. Also, in the data set with Plasmopara viticola, the inhibition at 200 ppm is no less than 80%. Besides, the inhibition at 200 ppm in data set [1] (setting [2]) was no less than 80%.
Molecule `CCC(Oc1cc(C)c2ncc(SC)cc2c1)C(=O)NC(C)(C)C` (stereo not drawn) displayed a melting point of 119 to 121 °C.
The molecule `CCC(Oc1ccc2ncc(OC)cc2c1)C(=O)NC(C)(C#N)COC` (stereo not drawn) displayed a melting point of 122 to 124 °C.
For `C#CC(C)(C)NC(=O)C(OC)Oc1cc(C)c2ncc(SC)cc2c1` (stereo not drawn), the melting point was 124 to 127 °C.
Still for that read-out and setting: for `COC(Oc1cc(Cl)c2ncc(SC)cc2c1)C(=O)NC(C)(C)C` (stereo not drawn) the value was 125 to 127 °C.
In turn, `COCC(C)(C#N)NC(=O)C(Oc1ccc2ncc(OC)cc2c1)SC` (stereo not drawn) [Compound 3, N-(1-Cyano-2-methoxy-1-methyl-ethyl)-2-(3-methoxy-quinolin-6-yloxy)-2-methylsulfanyl-acetamide] gave a melting point of 75 to 77 °C. For the same molecule, the inhibition at 200 ppm in data set [1] (setting [2]) is no less than 80%. The inhibition at 200 ppm in the data set with Pythium ultimum (setting [3]) was no less than 80%.
The molecule `COCC(C)(C#N)NC(=O)C(OC)Oc1cc(Cl)c2ncc(SC)cc2c1` (stereo not drawn) showed a melting point of 90 to 93 °C.
`CC#CC(C)(C)NC(=O)C(Oc1cc(C)c2ncc(OCC)cc2c1)SC` (stereo not drawn) [Compound 24, N-(1,1-Dimethyl-but-2-ynyl)-2-(3-ethoxy-8-methyl-quinolin-6-yloxy)-2-methylsulfanyl-acetamide]: the melting point fell in the range of 137 to 139 °C. For the same molecule, the inhibition at 200 ppm with Plasmopara viticola was no less than 80%. In data set [1], the inhibition at 200 ppm is no less than 80%. For the same molecule, in the data set on Pythium ultimum, the inhibition at 200 ppm is no less than 80%.
Regarding `COCC#CC(C)(C)NC(=O)C(OC)Oc1cc(Cl)c2ncc(SC)cc2c1` (stereo not drawn) [Compound 49, 2-(8-Chloro-3-methylsulfanyl-quinolin-6-yloxy)-2-methoxy-N-(4-methoxy-1,1-dimethyl-but-2-ynyl)-acetamide], the melting point is 85 to 87 °C. The inhibition at 200 ppm in the data set on Plasmopara viticola was no less than 80%.
The molecule `CCOc1cnc2c(C)cc(OC(SC)C(=O)NC(C)(C)C)cc2c1` (stereo not drawn) [Compound 20, N-tert-Butyl-2-(3-ethoxy-8-methyl-quinolin-6-yloxy)-2-methylsulfanyl-acetamide] gave a melting point of 181 to 183 °C. In the data set on Pythium ultimum (setting [3]), the inhibition at 200 ppm is no less than 80%.
As for `COC(Oc1cc(Cl)c2ncc(SC)cc2c1)C(=O)NC(C)C` (stereo not drawn) [Compound 52], the melting point was in the range of 115 to 118 °C. For the same molecule, the inhibition at 200 ppm in data set [1] (setting [2]) was no less than 80%.
Take `COC(Oc1cc(Cl)c2ncc(SC)cc2c1)C(=O)NC1CCC1` (stereo not drawn): the melting point was 128 to 130 °C.
As to `CCC(Oc1ccc2ncc(SC)cc2c1)C(=O)NC(C)C` (stereo not drawn) [Compound 28, N-Isopropyl-2-(3-methylsulfanyl-quinolin-6-yloxy)-butyramide], the melting point fell in the range of 112 to 115 °C. The inhibition at 200 ppm with Pythium ultimum (setting [3]) was no less than 80%.
With `COC(Oc1ccc2ncc(SC)cc2c1)C(=O)NC1(C)CCC1` (stereo not drawn), the melting point is 100 to 102 °C.
`CC#CC(C)(C)NC(=O)C(OC)Oc1cc(Cl)c2ncc(SC)cc2c1` (stereo not drawn) [Compound 48, 2-(8-Chloro-3-methylsulfanyl-quinolin-6-yloxy)-N-(1,1-dimethyl-but-2-ynyl)-2-methoxy-acetamide]: the melting point is 90 to 92 °C. In addition, the inhibition at 200 ppm with Plasmopara viticola was no less than 80%.

As usually defined, the melting point is the temperature of the solid-liquid transition.
